Measured values taken from paper PMC8149661, “Small-molecule inhibition of Lats kinases may promote Yap-dependent proliferation in postmitotic mammalian tissues” (Nature Communications, 2021).

Columns and labels:
Assay in all cases: biochemical
PKA = molecular target: T1, PKA (Homo sapiens, UniProt P17612); design: functional kinase inhibition IC50 (Reaction Biology)
T1 construct: gene PRKACA

ROCK1 [1] = molecular target: T2, ROCK1 (Homo sapiens, UniProt Q13464); design: functional kinase inhibition IC50 (Reaction Biology)
T2 sequence (Q13464 whole entry): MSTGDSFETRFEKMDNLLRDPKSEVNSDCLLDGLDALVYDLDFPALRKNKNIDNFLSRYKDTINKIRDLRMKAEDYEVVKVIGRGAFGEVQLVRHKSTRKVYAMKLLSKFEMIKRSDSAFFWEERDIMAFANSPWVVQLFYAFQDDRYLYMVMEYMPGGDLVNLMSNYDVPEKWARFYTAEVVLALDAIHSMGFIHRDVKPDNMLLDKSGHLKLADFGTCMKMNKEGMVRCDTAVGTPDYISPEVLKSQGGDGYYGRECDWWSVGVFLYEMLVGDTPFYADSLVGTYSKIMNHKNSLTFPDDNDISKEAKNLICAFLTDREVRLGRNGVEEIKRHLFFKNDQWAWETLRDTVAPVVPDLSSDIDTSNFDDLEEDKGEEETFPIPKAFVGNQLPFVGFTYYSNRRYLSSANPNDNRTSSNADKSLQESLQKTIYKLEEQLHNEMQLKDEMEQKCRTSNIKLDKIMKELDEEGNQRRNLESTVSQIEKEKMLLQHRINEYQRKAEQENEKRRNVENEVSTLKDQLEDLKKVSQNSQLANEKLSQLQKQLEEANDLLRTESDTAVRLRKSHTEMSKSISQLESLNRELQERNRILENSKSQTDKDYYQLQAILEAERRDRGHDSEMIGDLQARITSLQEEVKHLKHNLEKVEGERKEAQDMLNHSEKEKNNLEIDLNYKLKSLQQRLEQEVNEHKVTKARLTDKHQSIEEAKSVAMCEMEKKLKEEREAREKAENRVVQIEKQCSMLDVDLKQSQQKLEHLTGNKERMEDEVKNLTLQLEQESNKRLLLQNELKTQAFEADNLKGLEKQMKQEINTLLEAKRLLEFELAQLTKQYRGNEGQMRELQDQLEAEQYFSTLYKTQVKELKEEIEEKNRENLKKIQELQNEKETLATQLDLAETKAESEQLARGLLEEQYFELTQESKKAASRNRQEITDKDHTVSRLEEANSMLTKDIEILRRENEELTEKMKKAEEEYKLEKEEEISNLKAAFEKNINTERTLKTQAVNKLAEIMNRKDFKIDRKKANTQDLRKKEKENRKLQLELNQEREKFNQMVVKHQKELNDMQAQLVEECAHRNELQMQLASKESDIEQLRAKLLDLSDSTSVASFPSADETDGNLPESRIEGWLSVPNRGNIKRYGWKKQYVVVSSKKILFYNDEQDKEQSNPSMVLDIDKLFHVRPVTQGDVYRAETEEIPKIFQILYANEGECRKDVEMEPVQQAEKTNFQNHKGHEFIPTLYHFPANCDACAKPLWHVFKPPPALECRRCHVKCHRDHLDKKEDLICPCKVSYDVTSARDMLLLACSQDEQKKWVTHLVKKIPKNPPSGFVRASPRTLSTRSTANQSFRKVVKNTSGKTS

PKCepsilon = molecular target: T3, PKCepsilon (Homo sapiens, UniProt Q02156); design: functional kinase inhibition IC50 (Reaction Biology)
T3 construct: gene PRKCE

NDR1 = molecular target: T4, NDR1 (Homo sapiens, UniProt Q15208); design: functional kinase inhibition IC50 (Reaction Biology)
T4 construct: gene STK38

DYRK1B = DYRK1B (Homo sapiens, UniProt Q9Y463); settings: read-out: % inhibition
HIPK2 = HIPK2 (Homo sapiens, UniProt Q9H2X6); settings: read-out: % inhibition
CLK1 = CLK1 (Homo sapiens, UniProt P49759); settings: read-out: % inhibition
PRKG2 = PRKG2 (Homo sapiens, UniProt Q13237); settings: read-out: % inhibition
PRKCQ = PRKCQ (Homo sapiens, UniProt Q04759); settings: read-out: % inhibition
GSK3B = GSK3B (Homo sapiens, UniProt P49841); settings: read-out: % inhibition
CLK2 = CLK2 (Homo sapiens, UniProt P49760); settings: read-out: % inhibition
HIPK1 = HIPK1 (Homo sapiens, UniProt Q86Z02); settings: read-out: % inhibition
CLK4 = CLK4 (Homo sapiens, UniProt Q9HAZ1); settings: read-out: % inhibition
LRRK2 = LRRK2 (Homo sapiens, UniProt Q5S007); settings: read-out: % inhibition
MAP3K7 = MAP3K7 (Homo sapiens, UniProt O43318); settings: read-out: % inhibition
ROCK1 [2] = molecular target: T2, ROCK1; settings: read-out: % inhibition
CDC7 = CDC7 (Homo sapiens, UniProt O00311); settings: read-out: % inhibition
Chain of CDC7 (O00311 whole entry): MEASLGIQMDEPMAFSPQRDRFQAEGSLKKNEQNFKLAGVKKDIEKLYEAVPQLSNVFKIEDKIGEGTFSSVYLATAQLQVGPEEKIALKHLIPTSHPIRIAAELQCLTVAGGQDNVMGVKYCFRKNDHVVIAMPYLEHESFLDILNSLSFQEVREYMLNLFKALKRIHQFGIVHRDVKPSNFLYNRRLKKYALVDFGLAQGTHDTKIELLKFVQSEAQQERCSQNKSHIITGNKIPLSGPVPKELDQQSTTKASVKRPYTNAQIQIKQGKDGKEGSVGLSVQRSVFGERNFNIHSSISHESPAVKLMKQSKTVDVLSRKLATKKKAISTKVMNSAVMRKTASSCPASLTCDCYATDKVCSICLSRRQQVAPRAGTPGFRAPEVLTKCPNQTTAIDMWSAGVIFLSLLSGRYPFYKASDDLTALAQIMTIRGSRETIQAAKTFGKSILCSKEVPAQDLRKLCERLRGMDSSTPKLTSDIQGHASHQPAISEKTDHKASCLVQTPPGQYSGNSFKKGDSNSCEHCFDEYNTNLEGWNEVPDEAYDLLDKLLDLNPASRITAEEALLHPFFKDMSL

PRKCD = PRKCD (Homo sapiens, UniProt Q05655); settings: read-out: % inhibition
PKN1 = PKN1 (Homo sapiens, UniProt Q16512); settings: read-out: % inhibition
Chain of PKN1 (Q16512 whole entry): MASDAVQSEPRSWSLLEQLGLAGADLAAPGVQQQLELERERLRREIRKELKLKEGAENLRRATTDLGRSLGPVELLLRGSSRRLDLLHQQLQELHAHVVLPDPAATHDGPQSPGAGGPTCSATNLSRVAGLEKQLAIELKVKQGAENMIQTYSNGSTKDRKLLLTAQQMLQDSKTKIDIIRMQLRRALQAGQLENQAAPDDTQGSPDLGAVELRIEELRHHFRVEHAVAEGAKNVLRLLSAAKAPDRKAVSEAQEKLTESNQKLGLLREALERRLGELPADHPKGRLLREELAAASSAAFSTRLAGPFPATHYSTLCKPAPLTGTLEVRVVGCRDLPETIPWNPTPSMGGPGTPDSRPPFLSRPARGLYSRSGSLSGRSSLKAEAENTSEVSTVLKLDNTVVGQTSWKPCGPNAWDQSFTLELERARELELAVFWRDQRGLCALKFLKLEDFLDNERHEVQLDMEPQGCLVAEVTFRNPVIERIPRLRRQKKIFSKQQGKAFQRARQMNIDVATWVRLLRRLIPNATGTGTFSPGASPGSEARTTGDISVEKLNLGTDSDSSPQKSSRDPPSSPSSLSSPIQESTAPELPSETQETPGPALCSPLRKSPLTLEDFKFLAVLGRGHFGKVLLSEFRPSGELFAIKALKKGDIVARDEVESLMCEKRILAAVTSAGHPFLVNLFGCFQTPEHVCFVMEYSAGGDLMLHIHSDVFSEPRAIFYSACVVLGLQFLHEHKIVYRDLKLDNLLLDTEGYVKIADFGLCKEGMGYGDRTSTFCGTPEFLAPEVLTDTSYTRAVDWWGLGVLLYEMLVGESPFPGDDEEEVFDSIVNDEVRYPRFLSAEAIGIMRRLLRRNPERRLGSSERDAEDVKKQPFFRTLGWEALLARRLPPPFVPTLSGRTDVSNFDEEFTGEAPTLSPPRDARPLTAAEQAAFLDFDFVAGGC

PAK4 = PAK4 (Homo sapiens, UniProt O96013); settings: read-out: % inhibition
Chain of PAK4 (O96013 whole entry): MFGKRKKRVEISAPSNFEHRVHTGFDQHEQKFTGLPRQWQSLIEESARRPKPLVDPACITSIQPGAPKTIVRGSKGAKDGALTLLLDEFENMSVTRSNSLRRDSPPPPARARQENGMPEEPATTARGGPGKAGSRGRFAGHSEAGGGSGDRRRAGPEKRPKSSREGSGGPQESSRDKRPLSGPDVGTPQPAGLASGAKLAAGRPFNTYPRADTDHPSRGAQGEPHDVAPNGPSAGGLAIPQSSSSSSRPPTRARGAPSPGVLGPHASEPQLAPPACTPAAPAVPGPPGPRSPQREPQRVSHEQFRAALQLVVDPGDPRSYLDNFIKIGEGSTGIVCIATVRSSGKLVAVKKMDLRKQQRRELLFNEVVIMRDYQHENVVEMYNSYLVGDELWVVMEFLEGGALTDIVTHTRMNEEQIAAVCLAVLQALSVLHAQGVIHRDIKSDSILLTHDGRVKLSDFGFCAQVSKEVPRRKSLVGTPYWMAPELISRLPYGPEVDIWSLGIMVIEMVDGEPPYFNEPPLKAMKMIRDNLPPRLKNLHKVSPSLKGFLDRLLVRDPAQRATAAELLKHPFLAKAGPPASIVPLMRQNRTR

TGFBR2 = TGFBR2 (Homo sapiens, UniProt P37173); settings: read-out: % inhibition
ROCK2 = ROCK2 (Homo sapiens, UniProt O75116); settings: read-out: % inhibition
DAPK3 = DAPK3 (Homo sapiens, UniProt O43293); settings: read-out: % inhibition
HIPK3 = HIPK3 (Homo sapiens, UniProt Q9H422); settings: read-out: % inhibition
DYRK1A = DYRK1A (Homo sapiens, UniProt Q13627); settings: read-out: % inhibition
MAP4K4 = MAP4K4 (Homo sapiens, UniProt O95819); settings: read-out: % inhibition
PRKACB = PRKACB (Homo sapiens, UniProt P22694); settings: read-out: % inhibition
CDC42BPG = CDC42BPG (Homo sapiens, UniProt Q6DT37); settings: read-out: % inhibition
BMP2K = BMP2K (Homo sapiens, UniProt Q9NSY1); settings: read-out: % inhibition
PRKX = PRKX (Homo sapiens, UniProt P51817); settings: read-out: % inhibition
CDK8 = CDK8 (Homo sapiens, UniProt P49336); settings: read-out: % inhibition
PASK = PASK (Homo sapiens, UniProt Q96RG2); settings: read-out: % inhibition
Chain of PASK (Q96RG2 whole entry): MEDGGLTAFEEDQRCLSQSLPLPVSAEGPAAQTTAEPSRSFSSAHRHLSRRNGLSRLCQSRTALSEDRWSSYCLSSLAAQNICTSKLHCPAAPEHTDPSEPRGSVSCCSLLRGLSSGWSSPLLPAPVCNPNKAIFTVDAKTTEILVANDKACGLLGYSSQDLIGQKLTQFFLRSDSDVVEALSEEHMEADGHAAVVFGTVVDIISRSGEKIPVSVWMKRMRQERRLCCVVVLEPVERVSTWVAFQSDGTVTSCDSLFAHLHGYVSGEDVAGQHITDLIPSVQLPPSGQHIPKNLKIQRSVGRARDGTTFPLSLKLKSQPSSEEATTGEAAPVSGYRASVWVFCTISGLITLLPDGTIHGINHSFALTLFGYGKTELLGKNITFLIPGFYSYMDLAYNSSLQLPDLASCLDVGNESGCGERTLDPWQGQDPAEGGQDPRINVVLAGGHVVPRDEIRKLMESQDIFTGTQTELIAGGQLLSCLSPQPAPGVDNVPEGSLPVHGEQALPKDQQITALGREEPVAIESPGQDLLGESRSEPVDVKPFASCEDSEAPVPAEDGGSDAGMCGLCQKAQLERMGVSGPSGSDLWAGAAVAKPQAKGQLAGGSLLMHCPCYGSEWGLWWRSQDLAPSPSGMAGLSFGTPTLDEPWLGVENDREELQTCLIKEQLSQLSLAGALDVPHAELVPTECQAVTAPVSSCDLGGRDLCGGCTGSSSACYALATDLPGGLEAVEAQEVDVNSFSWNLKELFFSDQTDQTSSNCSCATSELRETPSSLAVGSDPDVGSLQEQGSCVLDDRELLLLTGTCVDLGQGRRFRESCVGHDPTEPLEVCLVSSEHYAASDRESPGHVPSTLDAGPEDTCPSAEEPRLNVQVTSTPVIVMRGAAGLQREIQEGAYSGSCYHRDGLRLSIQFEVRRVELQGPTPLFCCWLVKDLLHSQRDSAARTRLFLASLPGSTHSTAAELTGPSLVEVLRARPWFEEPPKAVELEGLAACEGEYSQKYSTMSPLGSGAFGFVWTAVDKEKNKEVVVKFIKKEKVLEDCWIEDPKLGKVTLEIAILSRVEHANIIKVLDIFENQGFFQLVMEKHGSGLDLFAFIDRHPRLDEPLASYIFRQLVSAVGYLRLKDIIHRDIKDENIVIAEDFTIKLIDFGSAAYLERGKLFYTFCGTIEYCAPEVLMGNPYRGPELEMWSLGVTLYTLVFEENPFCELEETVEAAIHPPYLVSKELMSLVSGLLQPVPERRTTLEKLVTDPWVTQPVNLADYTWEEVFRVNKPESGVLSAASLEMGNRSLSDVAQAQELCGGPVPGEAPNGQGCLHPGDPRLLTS

TAOK1 = TAOK1 (Homo sapiens, UniProt Q7L7X3); settings: read-out: % inhibition
DMPK = DMPK (Homo sapiens, UniProt Q09013); settings: read-out: % inhibition
CDK19 = CDK19 (Homo sapiens, UniProt Q9BWU1); settings: read-out: % inhibition
CDC42BPA = CDC42BPA (Homo sapiens, UniProt Q5VT25); settings: read-out: % inhibition
PKN2 = PKN2 (Homo sapiens, UniProt Q16513); settings: read-out: % inhibition
PRKCH = PRKCH (Homo sapiens, UniProt P24723); settings: read-out: % inhibition

Q: For `O=C(N=c1sccn1Cc1ccccc1)c1c[nH]c2ncccc12` [TRULI, N-(3-benzylthiazol-2(3H)-ylidene)-1H-pyrrolo[2,3-b]pyridine-3-carboxamide], which IC50 (PKA) is on record?
A: 60 nM

Q: What about the IC50 (ROCK1 [1]) of the same molecule?
A: 88 nM

Q: What about the IC50 (PKCepsilon) of the same molecule?
A: 14 nM

Q: And the IC50 (NDR1)?
A: 1000 nM

Q: And the inhibition at 1 µM (DYRK1B)?
A: 81.5%

Q: And the inhibition at 1 µM (HIPK2)?
A: 94.2%

Q: And the inhibition at 1 µM (CLK1)?
A: 78.1%

Q: What about the inhibition at 1 µM (PRKG2) of the same molecule?
A: 79.1%

Q: And the inhibition at 1 µM (PRKCQ)?
A: 99.2%

Q: And the inhibition at 1 µM (GSK3B)?
A: 92.7%

Q: What about the inhibition at 1 µM (CLK2) of the same molecule?
A: 92.8%

Q: And the inhibition at 1 µM (HIPK1)?
A: 86.1%

Q: What about the inhibition at 1 µM (CLK4) of the same molecule?
A: 102%

Q: And the inhibition at 1 µM (LRRK2)?
A: 81.3%

Q: And the inhibition at 1 µM (MAP3K7)?
A: 74%

Q: And the inhibition at 1 µM (ROCK1 [2])?
A: 79.2%

Q: And the inhibition at 1 µM (CDC7)?
A: 99.1%

Q: And the inhibition at 1 µM (PRKCD)?
A: 78%

Q: What about the inhibition at 1 µM (PKN1) of the same molecule?
A: 77.7%

Q: And the inhibition at 1 µM (PAK4)?
A: 83.4%

Q: And the inhibition at 1 µM (TGFBR2)?
A: 81.3%

Q: And the inhibition at 1 µM (ROCK2)?
A: 84.1%

Q: What about the inhibition at 1 µM (DAPK3) of the same molecule?
A: 77.1%

Q: What about the inhibition at 1 µM (HIPK3) of the same molecule?
A: 95.8%

Q: And the inhibition at 1 µM (DYRK1A)?
A: 85.8%

Q: What about the inhibition at 1 µM (MAP4K4) of the same molecule?
A: 77.5%

Q: And the inhibition at 1 µM (PRKACB)?
A: 92.9%

Q: And the inhibition at 1 µM (CDC42BPG)?
A: 83.7%

Q: What about the inhibition at 1 µM (BMP2K) of the same molecule?
A: 86.3%

Q: What about the inhibition at 1 µM (PRKX) of the same molecule?
A: 88.1%

Q: And the inhibition at 1 µM (CDK8)?
A: 88.8%

Q: And the inhibition at 1 µM (PASK)?
A: 85.8%

Q: And the inhibition at 1 µM (TAOK1)?
A: 76.4%

Q: And the inhibition at 1 µM (DMPK)?
A: 97.9%

Q: And the inhibition at 1 µM (CDK19)?
A: 90.2%

Q: And the inhibition at 1 µM (CDC42BPA)?
A: 97.2%

Q: What about the inhibition at 1 µM (PKN2) of the same molecule?
A: 89.7%

Q: And the inhibition at 1 µM (PRKCH)?
A: 90.4%
